How the values were obtained:
[1] = NOVARTIS: Cytotoxicity against human hepatocellular carcinoma cell line (Huh7); type: toxicity, cell-based, Huh-7; conditions: Huh7 cells (hepatocellular carcinoma cell line)
[2] = test system: Plasmodium falciparum; assay: NOVARTIS: Inhibition of Plasmodium falciparum 3D7 (drug-susceptible) proliferation in erythrocyte-based infection assay; type: functional, organism-based; conditions: Plasmodium falciparum, 3D7
[3] = test system: Plasmodium falciparum; assay: NOVARTIS: Inhibition of Plasmodium falciparum W2 (drug-resistant) proliferation in erythrocyte-based infection assay; type: functional, organism-based; conditions: Plasmodium falciparum, W2; read-out: EC50

Compound | CC50 [1] | EC50 [2] | EC50 [3]
NNc1ncnc2[nH]cnc12 | > 10 µM | 0.303 µM | 0.666 µM
CC(C)(C)NCC(O)COc1cccc2oc3ccccc3c12 (stereo not given) | > 10 µM | > 1.25 µM | 0.653 µM
Cc1ccc2nc(-c3ccc(O)cc3)oc2c1 | > 10 µM | > 1.25 µM | > 0.635 µM
Brc1ccc(C=Nc2ccc(-c3nc4cc(-c5ccc6[nH]c(-c7ccc(N=Cc8ccc(Br)cc8)cc7)nc6c5)ccc4[nH]3)cc2)cc1 | > 10 µM | 0.587 µM | 0.647 µM
Cc1ccn2c(NC(C)(C)CC(C)(C)C)c(-c3ccccc3OC(=O)C(c3ccccc3)c3ccccc3)nc2c1 | > 1.12 µM | 0.746 µM | 0.0718 µM
CC(=O)Nc1c(C)cc(Cl)cc1Cl | > 10 µM | 1.45 µM | 0.661 µM
CCNC(=O)[C@@H]1C[C@@H](NC2C3CC4CC(C3)CC2C4)CN1Cc1cccc(OC)c1OC (stereo not given in full) | 72.2 µM | > 12.5 µM | 4.6 µM
CC(CC(=O)NCCCCNc1ccnc2cc(Cl)ccc12)CC(C)(C)C (stereo not given) | 4.59 µM | 0.443 µM | 0.296 µM
CCOC(=O)CN1C(=O)c2ccccc2Sc2ncccc21 | > 10 µM | > 1.12 µM | > 0.644 µM
Clc1ccc2c(NC3CCCCCCC3)ccnc2c1 | > 13.7 µM | 1.04 µM | 0.881 µM
CC(=O)N1c2ccccc2CC1C(=O)NCc1cccc(Cl)c1 (stereo not given) | > 100 µM | > 12.5 µM | > 6.46 µM
CC(=O)c1ccc(N2C(C)c3nc4ccccc4c(=O)n3C2c2cccc(O)c2)cc1 (stereo not given) | > 10 µM | 1.05 µM | 0.646 µM
CCN(CC)CCN(Cc1cc2cc(OC)ccc2[nH]c1=O)C(=S)Nc1ccc(F)cc1 | 51.4 µM | 2.08 µM | 3.32 µM
O=C(Nc1ccc2oc(-c3ccc(I)cc3)nc2c1)c1ccc([N+](=O)[O-])o1 | 33.8 µM | 3.16 µM | 2.2 µM
CN1CCN(c2c3c(c(C#N)c4nc5ccccc5n24)CCC3)CC1 | > 100 µM | 1.18 µM | > 6.49 µM
NC(=O)c1ccc2c(c1)N=C(c1cccnc1)N(C1CC1)C2 | > 10 µM | 1.29 µM | 0.648 µM
COc1ccc(-n2cc(-c3ccccc3)[n+]3c2SCC3)cc1 | > 10 µM | 0.527 µM | 0.647 µM
COC(=O)C1=C(C)NC2=C(C(=O)CC(C)(C)C2)C1c1ccccc1[N+](=O)[O-] (stereo not given) | > 91.5 µM | > 12.5 µM | 5.97 µM
COCCNC(=O)c1ccc(NCCc2ccc(Cl)cc2)c(S(=O)(=O)Nc2cccc(C(F)(F)F)c2)c1 | > 100 µM | 7.34 µM | 6.52 µM
CC1=C(CCN(CCCN(C)C)CCCN(C)C)C(C)(C)CCC1 | 7.66 µM | 0.193 µM | 0.498 µM
COc1ccccc1-n1c(C=Cc2cc(Br)ccc2O)nc2ccccc2c1=O | 19.4 µM | 2.07 µM | 1.24 µM
CC(C)CNC(=O)c1cnc(NCCCn2ccnc2)nc1Nc1ccccc1 | > 10 µM | 0.633 µM | 0.639 µM
O=C(C1Cc2ccccc2CN1S(=O)(=O)c1ccc(F)cc1)N1CCOCC1 (stereo not given) | > 10 µM | > 1.33 µM | 0.641 µM
COc1ccc(-c2noc(-c3cccc(I)c3)n2)cc1OC | > 13.6 µM | > 1.74 µM | > 0.873 µM

Compound | CC50 [1] | EC50 [2] | EC50 [3]
CC1CCCCN1CCCNCc1ccc(OCc2ccccc2)cc1 (stereo not given) | 4.65 µM | 0.385 µM | 0.298 µM
CSc1oc(C(C)(C)C)nc1[P+](c1ccccc1)(c1ccccc1)c1ccccc1 | 6.82 µM | 0.296 µM | 0.438 µM
C=CCSc1nc(Sc2ccc(Cl)cc2)c2sc3ccccc3c2n1 | > 10 µM | > 1.25 µM | > 0.642 µM
Cc1cccc(C)c1NC(=O)N1CCN(C(=O)c2nc(-c3ccccc3)nc(C)c2C(=O)OC(C)C)CC1C (stereo not given) | > 10 µM | 0.792 µM | 0.642 µM
CC[n+]1c(/C=C/N(C)c2ccccc2)sc(-c2ccccc2)c1-c1ccccc1 | > 10 µM | 1.1 µM | 0.638 µM
CCCn1c(C(CC)N2CCNCC2)nc2ccccc2c1=O (stereo not given) | > 10 µM | 0.285 µM | 0.637 µM
COc1ccc([N+](=O)[O-])cc1N(CC1CO1)S(=O)(=O)c1ccc(C)cc1 (stereo not given) | > 100 µM | > 12.5 µM | 6.64 µM
CCOC(=O)c1cnc(SCC(=O)Nc2cc(C)ccc2C)nc1N | > 10 µM | > 1.25 µM | > 0.66 µM
CCCCCCN(C(=O)c1ccccc1)C(CC)c1nc2ccccc2c(=O)n1-c1ccccc1OC (stereo not given) | > 7.98 µM | 1.05 µM | 0.526 µM
COc1ccccc1NC(=O)CCCC(=O)OC(C)C(=O)c1ccccc1 (stereo not given) | > 10 µM | > 1.25 µM | > 0.659 µM
FC(F)(F)c1cccc(CNC2CCN(CCc3ccccc3)CC2)c1 | 7.39 µM | 0.174 µM | 0.487 µM
Cc1ccc(Sc2cc(C(=O)NCc3ccco3)c3ccccc3n2)cc1 | > 100 µM | > 6.98 µM | 6.58 µM
C(=C\c1ccccc1)/CNC1CCN(Cc2ccccc2)CC1 | > 10 µM | 0.995 µM | 0.657 µM
Cc1cccc(Nc2nc(NCc3ccco3)c3ccccc3n2)c1 | 4.93 µM | 0.266 µM | 0.326 µM
COc1ccc(NC(=O)NCc2cccn2Cc2ccc(F)cc2)cc1OC | > 10 µM | 1.07 µM | 0.661 µM
CCC(/C=C1\Sc2ccc3ccccc3c2N1C)=C\c1sc2ccc3ccccc3c2[n+]1C | > 100 µM | 2.61 µM | 6.37 µM
CCOc1ccc(NC2=C(N3CCOCC3)C(=O)c3ccccc3C2=O)cc1 | > 100 µM | 3.66 µM | 6.57 µM
Cc1cccc(C)c1NC(=O)N1CCN(C2CCCCC2)CC1 | > 100 µM | > 12.5 µM | > 6.56 µM
CC(=O)N1CCc2cc(NC3CCN(Cc4ccccc4)CC3)ccc21 | > 10 µM | > 1.25 µM | > 0.656 µM
CCOC(=O)c1ccc(N2C(=O)c3[nH]nc(C)c3C2c2ccccc2OC)cc1 (stereo not given) | > 10 µM | 0.61 µM | > 0.655 µM
CC1N=C2c3ccccc3N=C(SCc3ccc(F)cc3)N2C1=O (stereo not given) | > 100 µM | > 12.5 µM | > 6.53 µM
CCCCCCCCN[C@@H](C)[C@@H](O)c1ccc(SC(C)C)cc1 | > 6.25 µM | > 1.25 µM | 0.413 µM
COc1cc(OC)cc(N2CCN(CCNCCOc3ccccc3)[C@@H](c3ccccc3)C2)c1 | > 10 µM | > 1.25 µM | > 0.635 µM
CCCN(CCC)C(=O)c1c[nH]c2ccc(S(=O)(=O)N(C)c3ccc(F)cc3)cc2c1=O | > 100 µM | > 12.5 µM | 6.65 µM

Compound | CC50 [1] | EC50 [2] | EC50 [3]
CC1Cc2ccc(F)cc2CN1C(=O)c1ccc(COc2ccccc2Br)o1 (stereo not given) | > 100 µM | 8.37 µM | 6.35 µM
COc1ccc(N2C(N)=NC(N)=NC23CCCC3)cc1 | > 100 µM | 0.393 µM | 6.35 µM
CC1(C)CC(N=c2cc(-c3ccccc3)oc3ccc(Cl)cc23)CC(C)(C)N1 | 9.6 µM | 0.251 µM | 0.609 µM
COc1ccccc1N1CCN(c2ccc(NC(=O)c3cccc(F)c3)cc2C(=O)N2CCCC2)CC1 | > 100 µM | > 12.5 µM | 6.35 µM
COc1ccc(N2C(=O)c3cccnc3C2=O)cc1 | > 10 µM | 1.98 µM | 0.665 µM
CC1CCN(S(=O)(=O)c2ccc(C(=O)Nc3sc4c(c3C(N)=O)CCN(C)C4)cc2)CC1 | > 10 µM | > 1.25 µM | > 0.665 µM
CN(C(=O)CCNC(=O)Cn1cnc2ccccc2c1=O)C1CCCCC1 | > 10 µM | > 1.25 µM | > 0.636 µM
CC(NS(=O)(=O)c1ccccc1)C(c1cccs1)N1CCN(c2ccccc2F)CC1 (stereo not given) | > 100 µM | > 12.5 µM | 6.35 µM
COc1ccc(C(=O)C[n+]2ccc(N)c(C)c2C)cc1 | > 10 µM | 0.438 µM | > 0.665 µM
CCOc1cccc2c1N(C(=O)c1ccc(C)cc1)C(C)(C)C1=C2C2(SC(C(=O)OC)=C(C(=O)OC)S2)C(C(=O)OC)=C(C(=O)OC)S1 | > 10 µM | 1.08 µM | 0.663 µM
CCOCc1nnc(NC(=O)COc2ccc(Cl)cc2Cl)s1 | > 100 µM | > 12.5 µM | 6.42 µM
CCCN1CCC(N2C[C@@H](NC3CCCCCC3)C[C@H]2C(=O)NCCc2ccc3c(c2)OCO3)CC1 | > 13 µM | 1.11 µM | > 0.833 µM
Cc1n[nH]c2c1C(c1ccc([N+](=O)[O-])cc1)N(c1ccc(Br)cc1)C2=O (stereo not given) | > 100 µM | > 12.5 µM | > 6.36 µM
CCC(=O)N(C1=C(NC)C(=O)c2ccccc2C1=O)C(C)C | 0.563 µM | 0.00899 µM | 0.0365 µM
CC[n+]1c(C=Cc2ccc(Cl)cc2)ccc2ccccc21 | 19.5 µM | 3.75 µM | 1.26 µM
CC1=NOC(=O)C1=Cc1ccc(-c2ccc([N+](=O)[O-])cc2)o1 | > 100 µM | > 12.5 µM | 6.5 µM
CCCC1=NN(c2nc3ccccc3s2)C(=O)C1 | > 10 µM | > 1.25 µM | > 0.644 µM
O=C1NN(c2ccc(Br)cc2)C(=O)/C1=C\c1c(O)ccc2ccccc12 | > 10 µM | 0.856 µM | 0.653 µM
CSc1c(C(=O)Nc2ccc(Br)cc2)ccc2c1C(=O)c1ccccc1C2=O | > 10 µM | > 1.25 µM | > 0.64 µM
CC(C)(C)c1ccc(/C=C/C(=O)NCc2ccco2)cc1 | > 10 µM | 0.792 µM | 0.639 µM
Cc1cnc(CNc2cc(-c3ccccn3)nc(-c3ccccn3)n2)nc1 | > 10 µM | 0.465 µM | 0.646 µM
CN(C)CC(C)(C)CNCc1cc(-c2ccnc3cc(Cl)ccc23)ccc1O | > 10 µM | 0.88 µM | 0.66 µM
